The values that follow are results of earlier work, collected in patent publication US20240398940A1, “NOVEL LIPID NANOPARTICLES FOR DELIVERY OF NUCLEIC ACIDS” (CureVac SE, priority 2021, published 2024).

Read-outs that look alike come from different tables or passages of the source.

The conditions of data set [1]: in vivo.

In the case of `Cc1c(C)c2c(c(C)c1OC(=O)CCC(=O)OCCC1CCN(CCSSCCN3CCC(CCOC(=O)CCC(=O)Oc4c(C)c(C)c5c(c4C)CCC(C)(CCCC(C)CCCC(C)CCCC(C)C)O5)CC3)CC1)CCC(C)(CCCC(C)CCCC(C)CCCC(C)C)O2` (stereo not shown) [C23, COATSOME ® SS-EC], the charge result runs as follows: (pH 4) “positive charge”; (pH 7) “neutral charge”.

Turning to poly(2-methyl-2-oxazoline) [PMOZ], in data set [1], the accumulation in tissue result is listed as “no significant accumulation in tissue” and the excretion result is given as “rapidly excreted by the kidney”.
